Experiment: in vitro
Details: human, hela cells, % viability

SMILES	viability at 28.5 h, 10 µM
N#CCCN(C(=O)Nc1ccccc1Cl)C1CCCCC1 [CBK156366]	86.8%
CC(=O)Nc1cccc(NC(=O)N(CCC#N)C2CCCCC2)c1 [CBK156367]	91.9%
N#CCCN(C(=O)NCc1c(Cl)cccc1Cl)C1CCCCC1 [CBK156371]	88%
N#CCCN(C(=O)NCCOc1ccccc1)C1CCCCC1 [CBK156374]	94.9%
COc1ccc(CCNC(=O)N(CCC#N)C2CCCCC2)cc1 [CBK156375]	100%
CCN(CC)CCCNC(=O)N(CCC#N)C1CCCCC1 [CBK156377]	95%
COc1cc(NC(=O)N(CCC#N)C2CCCCC2)cc(OC)c1OC [CBK156380]	94.4%
Cc1ccc(NC(=O)N(CCC#N)C2CCCCC2)cc1 [CBK156381]	106%
CC(NC(=O)N(CCC#N)C1CCCCC1)c1ccccc1 (stereo not drawn) [CBK156382]	97.2%
N#CCCN(C(=O)NC1CCc2ccccc21)C1CCCCC1 (stereo not drawn) [CBK156383]	95.5%
CN1CCN(CCCNC(=O)N2CCN(c3ccc(F)cc3)CC2)CC1 [CBK156386]	91.2%
O=C(NCC1COc2ccccc2O1)N1CCN(c2ccc(F)cc2)CC1 (stereo not drawn) [CBK156387]	92.8%
O=C(NCC1CCCCC1)N1CCN(c2ccc(F)cc2)CC1 [CBK156397]	86.9%
O=C(NCC(c1ccccc1)c1ccccc1)N1CCN(c2ccc(F)cc2)CC1 [CBK156415]	97%
O=C(NCCOc1ccccc1)N1CCN(c2ccc(F)cc2)CC1 [CBK156416]	92.7%
CCN(CC)CCCNC(=O)N1CCN(c2ccc(F)cc2)CC1 [CBK156419]	88.6%
CSCCCNC(=O)N1CCN(c2cc(C(F)(F)F)ccn2)CC1 [CBK156433]	92.3%
O=C(NCc1cccc(C(F)(F)F)c1)N1CCN(c2cc(C(F)(F)F)ccn2)CC1 [CBK156435]	102%
COCC(=O)N1CCC2(CC1)CC(=O)c1cc(Cl)cc(Cl)c1O2 [CBK156440]	84.1%
O=C1CC2(CCN(C(=O)c3ccccn3)CC2)Oc2ccc(Br)cc21 [CBK156443]	93.7%
CC(=O)NCC(=O)N1CCC2(CC1)CC(=O)c1cc(Br)ccc1O2 [CBK156447]	106%

SMILES	viability at 28.5 h, 10 µM
COc1ccc2c(c1)OC1(CCN(C(=O)c3ccc(C(C)=O)cc3)CC1)CC2=O [CBK156457]	94.2%
O=C1NCC(C(=O)N2CCC3(CC2)CC(=O)c2cc(Br)ccc2O3)N1 (stereo not drawn) [CBK156475]	87.7%
O=C1NC(=O)C(CC(=O)N2CCC3(CC2)CC(=O)c2cc(Cl)ccc2O3)N1 (stereo not drawn) [CBK156485]	107%
CCCCC(=O)N1CCC2(CC1)CC(=O)c1ccc(OCc3ccccc3)c(C)c1O2 [CBK156493]	104%
Cc1cnc(C(=O)N2CCC3(CC2)CC(=O)c2cc(Cl)cc(Cl)c2O3)cn1 [CBK156502]	89.7%
Cc1noc(C)c1C(=O)N1CCC2(CC1)CC(=O)c1ccc(OCc3ccccc3)c(C)c1O2 [CBK156506]	97.4%
O=C1CC2(CCN(C(=O)C3CCOC3)CC2)Oc2c(Br)cc(Br)cc21 (stereo not drawn) [CBK156512]	96.4%
CC(OC(=O)c1ccc2c(c1)C(=O)N(c1ccc(Cl)cc1)C2=O)C(=O)c1ccccc1 (stereo not drawn) [CBK156661]	111%
COc1ccccc1OCC(=O)N1CCC2(CCNC2)C1 (stereo not drawn) [CBK156703C]	99.6%
O=C(c1ccc2[nH]c(=O)[nH]c2c1)N1CCC2(CCNC2)C1 (stereo not drawn) [CBK156747C]	101%
CCCCCCOC(=O)c1ccc2c(c1)C(=O)N(c1cccc(N)c1)C2=O [CBK157034]	106%
O=C(Nc1ncc(-c2ccccc2)s1)c1cccc([N+](=O)[O-])c1 [CBK157055]	92.7%
CC(OC(=O)c1ccc2c(c1)C(=O)N(c1ccc([N+](=O)[O-])cc1)C2=O)C(=O)c1ccccc1 (stereo not drawn) [CBK157061]	94.3%
COc1cccc(C(=O)N2CCN(S(=O)(=O)c3ccc([N+](=O)[O-])cc3)CC2)c1 [CBK157533]	96.9%
O=[N+]([O-])c1ccc(N2CCN(S(=O)(=O)c3ccc4ccccc4c3)CC2)cc1 [CBK157773]	93.6%
CN1CCN(CCCNC(=O)c2ccc(-c3ccc(C(=O)N(C)C)cc3)nc2)CC1 [CBK158343]	95%
CC1CCN(Cc2ccc(-c3ccc(CC(=O)NCCc4ccc(O)cc4)cn3)cc2)CC1 [CBK158384]	91.9%
CC1CCN(Cc2ccc(-c3ccc(CC(=O)NCc4ccc(C#N)cc4)cn3)cc2)CC1 [CBK158409]	93.8%
O=C(c1ccc(-c2cncc(-c3cc4ccccc4[nH]3)c2)cc1)N1CCOCC1 [CBK158419T]	76.1%
Nc1ncc(-c2ccc(C(=O)N3CCOCC3)cc2)cc1C(=O)NCc1c(F)cccc1F [CBK158569]	80.6%
CN(C)CC(C)(C)CNC(=O)c1cc(-c2ccc(C(=O)N3CCOCC3)cc2)cnc1N [CBK158574]	80.2%
